For assay [1], the target named is T1, human 5-HT2 receptor (Homo sapiens, UniProt P28223). The experiment in a line: Radioligand binding to transiently transfected Cos-7 cell membranes. As to conditions: transiently transfected Cos-7 cells.
Assay [2] deals with T1, human 5-HT2 receptor. The assay can be described thus: Saturation analysis of 3H-Ketanserin binding to stably transfected Ltk- cells. Details: Clone 6B contained the entire coding region for a 5-HT2 receptor; expressed in transfected cells. As to the method: (§1) The total reaction volume was 0.25 ml.
(§2) Subsequent to analysis in transiently transfected cells, the 5-HT2 clone was expressed as a stable transfectant in mouse Ltk^− cells. Further characterization was done on these cells as described above.
(§3) Full saturation analysis was performed on stable cell lines expressing the gene. […] The binding constants were evaluated by computer-assisted nonlinear regression using Accufit (Lundon Software, Chagrin Falls, Ohio). […] Further characterization was accomplished by performing competition experiments for a series of drugs. Analysis of the competition data was accomplished using the computer-assisted nonlinear regression program Accucomp.

In assay [3] the target is T2, cloned human 5-HT2 receptor (Homo sapiens, UniProt P28223).
T2 construct: Clone 6B contained the entire coding region for a 5-HT2 receptor; expressed in transfected cells
The assay can be described thus: Competition for 3H-Ketanserin binding, cloned human 5-HT2 receptor in stably transfected Ltk- cell membranes. As to conditions: cloned human 5-HT2 receptor expressed in Ltk- cells; 3H-Ketanserin radioligand. As to the method:
as §1, §2
Data were analyzed by computer-assisted analysis (Accufit Competition; Lundon Software; Chagrin Falls, Ohio).
as §3

Assay [4] deals with T3, 5-HT2 receptor in human cortical membranes (Homo sapiens, UniProt P28223).
T3 construct: the 5-HT2 receptor in human cortical membranes; host or cells: human cortical membranes
As to conditions: human cortex; footnote 1 Lyon et al. 1987, footnote 2 Hoyer et al. 1986; cited from earlier work.

In assay [5] the target is T4, 5-HT2 receptor in rat cortical membranes (Rattus norvegicus, UniProt P14842).
T4 construct: rather than in rat cortical membranes; host or cells: rat cortical membranes
The settings on record: rat cortex; Hoyer et al. 1986; cited from earlier work.

T1 sequence (P28223 whole entry): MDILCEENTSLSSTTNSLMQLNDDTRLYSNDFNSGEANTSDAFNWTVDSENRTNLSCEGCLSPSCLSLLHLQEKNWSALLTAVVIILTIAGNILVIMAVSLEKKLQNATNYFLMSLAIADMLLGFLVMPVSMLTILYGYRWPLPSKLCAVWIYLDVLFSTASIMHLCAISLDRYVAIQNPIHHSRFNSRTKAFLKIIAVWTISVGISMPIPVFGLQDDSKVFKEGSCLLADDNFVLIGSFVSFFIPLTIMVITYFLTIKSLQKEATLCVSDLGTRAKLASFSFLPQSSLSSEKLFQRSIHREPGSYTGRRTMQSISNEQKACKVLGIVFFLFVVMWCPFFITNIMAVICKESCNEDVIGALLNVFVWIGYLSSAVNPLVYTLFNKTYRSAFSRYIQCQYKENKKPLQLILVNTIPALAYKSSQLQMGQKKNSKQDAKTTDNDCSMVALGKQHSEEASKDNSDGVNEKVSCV
T2 sequence (P28223 whole entry): as above
T3 sequence (P28223 whole entry): as above
T4 sequence (P14842 whole entry): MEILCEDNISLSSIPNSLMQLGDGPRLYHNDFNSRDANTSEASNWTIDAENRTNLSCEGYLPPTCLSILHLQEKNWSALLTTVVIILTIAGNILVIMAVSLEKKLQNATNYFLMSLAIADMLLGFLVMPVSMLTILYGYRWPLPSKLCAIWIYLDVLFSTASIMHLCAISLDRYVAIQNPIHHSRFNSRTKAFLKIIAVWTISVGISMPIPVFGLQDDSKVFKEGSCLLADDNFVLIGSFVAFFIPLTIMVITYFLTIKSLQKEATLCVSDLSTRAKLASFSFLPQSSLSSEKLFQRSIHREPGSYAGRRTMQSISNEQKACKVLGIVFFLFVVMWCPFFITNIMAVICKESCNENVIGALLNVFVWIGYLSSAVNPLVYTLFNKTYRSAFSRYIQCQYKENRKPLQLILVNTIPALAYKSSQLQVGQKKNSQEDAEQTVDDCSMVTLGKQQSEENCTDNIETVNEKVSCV

With `[3H]C([3H])(N1CCC(C(=O)c2ccc(F)cc2)CC1)C([3H])([3H])n1c(=O)[nH]c2ccccc2c1=O` [^3H-Ketanserin], in assay [1], the “binding affinity in words” value is “high affinity” and the estimated site density is on record as 0.95-1.6 pm/mg protein. Further, the Bmax in assay [2] (FIG. 4 experiment, stably transfected Ltk- cells) amounted to 0.602 pmole/mg protein. The Bmax in assay [2] (Ltk- cells transfected with pMO5-6B) is on record as 0.602±0.07 pm/mg protein.

The term Ki denotes a measure of affinity in units of concentration, obtained from inhibition or displacement. `CN1C[C@@H](NS(=O)(=O)N(C)C)C[C@@H]2c3cccc4c3c(cn4C)C[C@H]21` [MESULERGINE]: the Ki in assay [3] was 146 ± 5 nM; in assay [4], 158 nM.

With `NCCc1c[nH]c2ccc(C(N)=O)cc12` [5-CT], the inhibition constant (Ki) in assay [5] was 20000 nM; in assay [3], 3030 nM; in assay [4] it was 813 nM.

Source of the values: patent US6383762B1, “Methods of obtaining compounds that interact with a human serotonin (5-HT2) receptor” (Synaptic Pharmaceutical Corporation, priority 1989, dated 2002).
